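Following 48 hours of exposure in 96-well plates, responses at five concentrations were used to interpolate endpoints linearly. At the GI50, growth is halved. The concentration for full growth arrest is given as TGI.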
Columns and labels:
Assay in all cases: NCI anticancer screen, dose series, 48 h
[1] = tested on: NCI-H23 lung
[2] = tested on: RXF 393 renal
[3] = tested on: NCI-H522 lung
[4] = tested on: U251 CNS
[5] = tested on: HT29 colon
[6] = tested on: SR leukemia
[7] = tested on: EKVX NSCLC
[8] = tested on: HOP-92 NSCLC
[9] = tested on: DU-145 prostate
[10] = tested on: T-47D breast

SMILES	TGI [1]	TGI [2]	TGI [3]	TGI [4]	TGI [5]	GI50 [6]	TGI [7]	GI50 [1]	GI50 [8]	TGI [8]	GI50 [2]	GI50 [3]	GI50 [9]	TGI [9]	GI50 [4]	GI50 [5]	GI50 [7]	GI50 [10]	TGI [10]	TGI [6]
O=C(/C=C\c1ccc(Cl)c(Cl)c1)c1ccc(Cl)cc1Cl	14.1 µM	39.7 µM	32.6 µM	40.6 µM	34.2 µM	7.87 µM	56.2 µM	–	–	–	–	–	–	–	–	–	–	–	–	–
COc1cc2c3c(n(C)c(=O)c2cc1OC)-c1cc2c(cc1/C3=C\CCCN)OCO2	> 100 µM	32 µM	23.4 µM	10.6 µM	> 100 µM	–	> 100 µM	8.07 µM	0.696 µM	7.22 µM	5.84 µM	0.61 µM	5.57 µM	54.1 µM	1.66 µM	4.57 µM	17.7 µM	10.9 µM	> 100 µM	–
Cc1cccc(NC(=O)Cn2cnc3sc(C(=O)OC(C)C)c(C)c3c2=O)c1	–	22.7 µM	44.6 µM	31 µM	–	> 50 µM	22.4 µM	–	> 50 µM	> 50 µM	7.1 µM	12.3 µM	9.33 µM	36.6 µM	12.6 µM	–	7.51 µM	> 50 µM	> 50 µM	> 50 µM
CCN1CCN(c2nc(C)cc(N(CCNc3ccnc4cc(Cl)ccc34)Cc3ccc4c(c3)OCO4)n2)CC1	14.2 µM	3.08 µM	4.06 µM	3.12 µM	4.83 µM	1.33 µM	13.9 µM	3.44 µM	1.17 µM	2.67 µM	1.44 µM	1.95 µM	–	–	1.56 µM	1.83 µM	3.14 µM	1.73 µM	3.87 µM	3.71 µM
Clc1ccc(C(c2ccc(Cl)cc2)c2ccccn2)cc1	> 100 µM	28.2 µM	48.6 µM	30.9 µM	30.8 µM	–	52.5 µM	–	–	30.1 µM	–	–	–	–	–	–	–	–	–	49.8 µM
COc1cc2c3c(n(C)c(=O)c2cc1OC)-c1cc2c(cc1/C3=C\CCN)OCO2	–	6.86 µM	> 100 µM	22.8 µM	> 34.8 µM	–	13.5 µM	–	1.32 µM	26.5 µM	0.823 µM	0.851 µM	0.362 µM	11.4 µM	0.16 µM	0.138 µM	1.71 µM	1.08 µM	> 100 µM	–
CCCCCCCCC/C=C1\CCC(CN2CCOCC2)C1=O (stereo unspecified)	9.18 µM	4 µM	6.64 µM	3.73 µM	8.7 µM	–	33.9 µM	–	–	7.4 µM	–	–	–	17.5 µM	–	–	–	–	–	6.28 µM
CC(=O)/C(=C\c1cccc([N+](=O)[O-])c1)C(=O)Nc1ccccc1C	> 100 µM	> 100 µM	> 100 µM	> 100 µM	> 100 µM	–	> 100 µM	–	–	> 100 µM	–	–	–	–	–	–	–	–	–	> 100 µM
O=C(Nc1ccc(Cl)cc1)c1cccc(NC2=C(Cl)C(=O)N(Cc3ccccc3)C2=O)c1	41.2 µM	–	29 µM	21.5 µM	> 100 µM	3.56 µM	> 100 µM	4.81 µM	9.85 µM	21.5 µM	–	7.09 µM	6.39 µM	19.7 µM	9.92 µM	32.4 µM	27.3 µM	11.4 µM	78.5 µM	14.9 µM
Cc1cc(-c2ccc3nc(C4CCOCC4)n(CCOC(F)(F)F)c3c2)cn(C)c1=O	12.8 µM	6.34 µM	9.31 µM	–	> 63.1 µM	0.597 µM	> 100 µM	0.518 µM	0.182 µM	36.6 µM	0.885 µM	0.244 µM	–	–	1.02 µM	–	0.761 µM	–	–	13.4 µM
CCCC(=O)OC1CC(n2cc(F)c(=O)[nH]c2=O)OC1COP(=O)(OCC(Cl)(Cl)Cl)OCC(Cl)(Cl)Cl (stereo unspecified)	> 100 µM	–	16.6 µM	> 78.8 µM	41.3 µM	–	> 100 µM	–	–	> 100 µM	–	–	–	> 67.6 µM	–	–	–	–	> 31.6 µM	99.4 µM
Cn1c2ccccc2c2cc(-c3ccccc3)c3c(c21)C(=O)c1ccccc1C3=O	22.8 µM	–	48.4 µM	–	> 100 µM	–	–	–	–	26.3 µM	–	–	–	–	–	–	–	–	–	31.4 µM
CCc1cc(Cc2cc(CC)c(NC(=O)C(=O)Cc3ccccn3)c(CC)c2Cl)c(Cl)c(CC)c1NC(=O)C(=O)Cc1ccccn1	> 100 µM	–	–	46.1 µM	> 100 µM	–	> 100 µM	–	–	> 100 µM	–	–	–	–	–	–	–	–	–	> 100 µM
OCC#Cc1ccccc1C#Cc1ccccc1	27.6 µM	–	69 µM	25.2 µM	97.6 µM	–	34 µM	13.7 µM	–	–	–	24.1 µM	14.9 µM	28.2 µM	11.7 µM	23.6 µM	17.6 µM	18.1 µM	37.6 µM	–
O=c1cc(-c2ccccc2)oc2cc(OCCCOc3ccc4c(=O)cc(-c5ccccc5)oc4c3)ccc12	> 100 µM	> 100 µM	> 100 µM	> 100 µM	> 100 µM	–	> 100 µM	–	–	> 100 µM	–	–	–	–	–	–	–	–	–	> 100 µM
CCOC(=O)C(=C=C=C(c1ccccc1)c1ccccc1)C(=O)OCC	> 100 µM	32.8 µM	–	33.2 µM	41.7 µM	–	82.8 µM	–	–	31.3 µM	–	–	–	–	–	–	–	–	–	–
CCN1c2ccccc2C(C(SC)S(=O)(=O)c2ccc(C)cc2)c2c1[nH]c(=O)n(C)c2=O (stereo unspecified)	> 100 µM	–	> 100 µM	> 100 µM	> 100 µM	–	> 100 µM	–	–	> 100 µM	–	–	–	–	–	–	–	–	–	–
CC1=CC(O)(c2ccc(-c3ccccc3Cl)cc2)OC1=O (stereo unspecified)	> 100 µM	> 100 µM	> 100 µM	> 100 µM	> 100 µM	–	> 100 µM	–	–	> 100 µM	–	–	–	–	–	–	–	–	–	–
O=c1c2sccc2n(CC2COc3ccccc3O2)c(=O)n1O (stereo unspecified)	34.4 µM	9.7 µM	> 100 µM	> 100 µM	> 100 µM	8.1 µM	> 100 µM	6.88 µM	–	–	3 µM	6.2 µM	19.8 µM	> 100 µM	7.52 µM	24.1 µM	35.3 µM	16.8 µM	> 100 µM	> 100 µM

— PubChem BioAssay (NCI)
